Experimental data published in patent US3960860A, “2-Methyl-5,7-dihydrothieno-[3,4d]-pyrimidine” (priority 1975, dated 1976).

Assays:
[1] = acute oral toxicity (LD50, no-effect dose); settings: in vivo
[2] = fragrance of perfume composition; settings: thienopyrimidine replaces 20 parts of caraway essence
[3] = organoleptic evaluation (odor and flavor) of the pyrimidine
[4] = comparison of toxicity and potency with the chloroanalog; settings: versus other analogs, such as its chloroanalog
[5] = taste of aqueous solutions; settings: by itself at levels of 10 parts in 10^10, aqueous solutions
Description: (§1) It can thus be used as an enhancer to reduce the quantity of artificial sweeteners required or to permit diminution of the quantity of natural sweeteners such as sugar.

[6] = enhancement of the sweetness of foods; settings: in foods; levels as low as
Description: as §1

[7] = character of vanilla flavor; settings: 0.2 parts of 0.1% in propylene glycol; compared with the material omitted
Description: A vanilla flavor is prepared by admixing the following ingredients: […]

[8] = 0.1% alcohol solution on a blotter strip

Cc1ncc2c(n1)CSC2 [2-methyl-5,7-dihydrothieno-[3,4d]-pyrimidine]
NOAEL ([1]; po, test animals, read-out: maximum no effective dose or the lowest dosage level at which essentially no signs of toxicity in test animals is observed): 34 mg/kg
LD50 ([1]; acute, oral): 260 ± 40 mg/kg
caraway note after replacement of caraway essence [2]: the natural caraway note of the original perfume is retained
odor/flavor character in aqueous solution ([3]; 0.001 ppm in aqueous solution): sweet roasted nut, popcorn character with a light astringency
flavor in water ([3]; 0.003 ppm in water): popcorn, roasted peanut flavor with an astringency like peanut skins
odor [3, 8]: sharp, fresh roasted, sweet nut with a popcorn character
persistence of odor [3, 8]: the odor seems to disappear because of anosmia
flavor effect in chicken broth ([3]; 10^^-6 ppm in chicken broth): accentuates the root vegetable flavor notes
odor of the crystalline material ([3]; colorless crystalline material): powerful odor of roasted fresh, sweet nut with a definite popcorn character
potency relative to other analogs [4]: less potent
toxicity relative to other analogs [4]: less toxic
aftertaste imparted to aqueous solutions [5]: sweet, pleasant, and non-bitter aftertaste
level at which the material begins to enhance the sweetness of foods [6]: 10 parts in 10^12
quality of vanilla flavor [7]: distinctly "natural" quality
